Measurements: US10351915B2 (Berg LLC, priority 2009, dated 2019)
Read-outs that look alike come from different tables or passages of the source.

Key:
[1] = LC-MS/MS quantification of Q10, Q10H2 and Q9 in mitochondrial enriched samples; format: cell-based
Method: Ten μl of each sample was injected.

[2] = tested on: SCC cells; test: Real-time PCR Diabetes Array; format: cell-based
Description: The control cells were untreated cells.

[3] = tested on: ATP Citrate Lyase (ACL); test: Western blot, ATP Citrate Lyase levels; format: cell-based, human; details: for ATP Citrate Lysase as % of CTRL, Normalized Intensity: 48 h
Method: After transfer each of the blots was placed in between 2 Whatman Filter papers and dried for 15-20 minutes. After drying the blots were labeled with the date, the type of samples and either blot 1 or blot 2 using a HB pencil. The molecular weight markers were outlined with the pencil and with single lines for the blue and a doublet for the colored markers. The blots were activated with methanol for 5 seconds, washed with water for 5 minutes, and TBST for 15 minutes. The blots were blocked for 1 hour with 5% blocking reagent in TBS-T at room temperature and then washed 3 times with TBS-T (1×-15′; 2×5′ each). Blot 1 was probed with the primary antibody for IDH1 (Cell Signaling #3997) in TBST with 5% BSA (at 1:1000 dilutions) and blot 2 with the rabbit polyclonal antibody for ATP Citrate Lyase in 5% BSA (Cell Signaling #4332) at 1:1000 dilution by incubation overnight at 4 deg C. with shaking. After the overnight incubation with primary antibodies, the blots were washed 3 times with TBS-T (1×-15′; 2×5′ each) and probed with the secondary antibody (antirabbit; 1:10,000 dilution) for 1 h on the orbital tilting shaker at room temperature. After 1 h of incubation with secondary antibodies, the blots were washed 3 times with TBS-T (1×-15′; 2×5′ each) and then incubated with ECF reagent for 5 mins and then each blot scanned with 5100 Fuji Laser scanner at 25 uM resolution, 16 bit, green laser, at 400V and at 500 V.
The Isocitrate dehydrogenase blot was stripped by incubating for 30 minutes with methanol, followed by two 10 minute washes with TBS-T, then 30 minutes of incubation with stripping buffer at 50 deg C., and followed by two washes with 100 ml or more of TBS-T for 30′ each. The blot was scanned in laser scanner to check for complete stripping. The blot was activated with methanol for 5 seconds, washed with water for 5 minutes, and TBST for 15 minutes. The blot was blocked for 1 hour with 5% blocking reagent in TBS-T at room temperature and then washed 3 times with TBS-T (1×-15′; 2×5′ each). This was then probed with the rabbit polyclonal antibody for ATP Citrate Lyase in 5% BSA (Cell Signaling #4332) at 1:1000 dilution overnight at 4 deg C. with shaking. After the overnight incubation with primary antibody for ATP Citrate Lyase, the membrane was washed 3 times with TBS-T (1×-15′; 2×5′ each) and probed with the secondary antibody (antirabbit; 1:10,000 dilution) for 1 h on the orbital tilting shaker at room temperature. After 1 h of incubation with secondary antibodies, the blot was washed 3 times with TBS-T (1×-15′; 2×5′ each) and then incubated with ECF reagent for 5 minutes and then each blot scanned with 5100 Fuji Laser scanner at 25 uM resolution, 16 bit, green laser, at 400V and at 500 V.
The levels of IDH1, ATP citrate lyase and actin levels were determined by probing the blots with primary antibodies for IDH1, ATP citrate lyase and actin, essentially as described above.

[4] = tested on: Hif1 alpha; test: Western blot, Hif1 alpha levels; format: cell-based, human; details: whole cell lysates of normal cells
Method: The Actin blots were stripped by incubating for 30 minutes with methanol, followed by two 10 minute washes with TBS-T, then 30 minutes of incubation with Stripping buffer at 50 deg C., and followed by two washes with 100 ml or more of TBS-T for 30′ each. The blots were scanned in laser scanner to check for complete stripping. The blots were activated with methanol for 5 seconds, washed with water for 5 minutes, and TBST for 15 minutes. The blots were blocked for 1 hour with 5% blocking reagent in TBS-T at room temperature and then washed 3 times with TBS-T (1×-15′; 2×5′ each) and probed with the primary antibody for Hif 1 alpha, Caspase 3 or PDHB in 5% BSA (at 1:200 by incubation overnight at 4 deg C. with gentle shaking. The primary antibody for Hif 1 alpha (Abcam ab2185; antirabbit) was at 1:500 dilution in 5% BSA. The primary antibody for Caspase 3 (Santacruz sc7272; antirabbit) was at 1:200 dilution in 5% BSA. The primary antibody for Pyruvate Dehydrogenase beta (PDHB) (Novus Biologicals H00005162-M03; antimouse) was at 1:500 dilution in 5% BSA. After incubation with primary antibodies, the membranes were washed 3 times with TBS-T (1×-15′; 2×5′ each) and probed with the secondary antibody (PDHB antimouse; Hif 1a and Caspase 3 antirabbit; 1:10,000 dilution) for 1 h at room temperature. […]

[5] = tested on: Bcl2; test: Bcl2 level after CoQ-10 in the presence of VEGF; format: cell-based; details: normal fibroblast, co-administration with VEGF
[6] = tested on: pancreatic cancer; details: intravenous
[7] = tested on: skin cancer cells; details: skin cancer cells vs normal cells; cited from earlier work

For `COC1=C(OC)C(=O)C(C/C=C(\C)CC/C=C(\C)CC/C=C(\C)CC/C=C(\C)CC/C=C(\C)CC/C=C(\C)CC/C=C(\C)CC/C=C(\C)CC/C=C(\C)CCC=C(C)C)=C(C)C1=O` [Q10, Coenzyme Q10], the “increase in Q10 levels in mitochondria” value ([1]; 100 μM Q10, 19 hours) was ~3 fold, the “increase in Q10 levels in mitochondria” value ([1]; 100 μM Q10, 48 hour time point) was ~6 fold and the “form of Q10 in mitochondria” value ([1]; exogenous Q10 added to the media) was “maintained in the supplied oxidized form”. For the same compound, the “Regulation (mRNA)” value ([2]; 100 μM Q10, at 6 and 24 hours) was “Down regulated at 6 and 24”, the “Regulation (mRNA)” value ([2]; 100 μM Q10, at 6 hours) was “Down regulated at 6 hours” and the “ATP Citrate Lysase as % of CTRL, Normalized Intensity” value ([3]; HepG2, 5g glucose, amount 50) was 0.85 % of CTRL. The “ATP Citrate Lysase as % of CTRL, Normalized Intensity” value ([3]; HepG2, 5g glucose, amount 100) was 0.79 % of CTRL, the “ATP Citrate Lysase as % of CTRL, Normalized Intensity” value ([3]; HepG2, 22G glucose, amount 100) was 2.09 % of CTRL and the “ATP Citrate Lysase as % of CTRL, Normalized Intensity” value ([3]; PACA2, 5g glucose, amount 50) was 0.68 % of CTRL. The “ATP Citrate Lysase as % of CTRL, Normalized Intensity” value ([3]; PACA2, 5g glucose, amount 100) was 0.42 % of CTRL, the “ATP Citrate Lysase as % of CTRL, Normalized Intensity” value ([3]; PACA2, 22G glucose, amount 50) was 1.12 % of CTRL and the “expression of ACL” value ([3]; cancer cells) was “dose-dependent decrease”. For the same compound, the “lower band of Hif1a” value [4] was “showed a decrease as well”, the “levels of Bcl2” value [5] was “no effect on the levels of Bcl2” and the animals alive ([6]; 5 mg/kg (Group D), after 28 days) was “most of the animals”. For the same compound, the animals alive ([6]; 10 mg/kg (Group E), after 28 days) was “most of the animals”, the animals alive ([6]; 25 mg/kg (Group F), after 28 days) was “most of the animals” and the animals alive ([6]; 50 mg/kg (Group G), at 28 days) was “all of the animals”. The rate of apoptosis [7] was “increase the rate of apoptosis in a culture of skin cancer cells but not normal cells”.
